Entries after “also recorded” stand apart in the source; their conditions may differ.
Legend:
Type in all cases: in vivo, C57BL/6J mice
[1] = test system: α5 protein; experiment: Total and surface α5 protein, surface biotinylation and Western blotting; settings: acute or chronic treatment
Description: Dissected hippocampi were processed as described in [Pabba et al. (2014)] with minor modifications.
The following antibodies and their dilutions were used in this study: rabbit polyclonal anti-α5 (1:750; Thermo Fisher Scientific, Waltham, MA, USA), rabbit monoclonal anti-β1-[…] (NK-ATPase) (1:1000; Abcam, Cambridge, MA, USA), and mouse monoclonal anti-β-actin (1:100; Abcam, Cambridge, MA, USA).
Western blotting was performed using 5 μg of protein resolved on 8% SDS-PAGE and transferred onto PVDF membranes and developed using IR-Dye conjugated secondary antibody and detection using LI-COR (NE, USA). Quantification of bands was performed using Image Studio^TM Software (LI-COR, NE, USA). We analyzed α5 surface biotinylation in vehicle versus drug treated mice (N = 6 females and 4 males per group). Total α5 band intensities were normalized to β-actin, whereas surface α5 band intensities were normalized to NK-ATPase.

[2] = test system: mice exposed to unpredictable chronic mild stress (UCMS); experiment: Novelty suppressed feeding test after UCMS
Text: (§1) Mice underwent between 6 and 8 weeks of UCMS (see Supplementary Table S1 for example UCMS schedule). Animals were exposed to 2–3 mild stressors each day throughout the light/dark cycle, including wet bedding, brief restraint, forced bath, no bedding, reduced space, and predator odor over a period of several weeks (see details in Supplementary Material) ([Edgar et al., 2011]; [Lin and Sibille, 2015]). Female mice were housed 5 per cage, and male mice were housed 4 per cage in Optimice cages (Animal Care Systems Inc, Centennial, CO, USA). In experiment 3.4, UCMS was augmented with single-cage isolation housing in male mice beginning at the fourth week of UCMS until sacrifice. A timeline of experimental procedures can be found in Figure 2A (including timeline of the sections “ Drug Treatment” and “Behavioral Testing”).
(§2) At the start of the third week of UCMS and continuing for between 28 and 42 days (including time for behavioral tests, see “Behavioral Testing”) until sacrifice, mice received daily i.p injections of vehicle (85% ddH2O, 14% propylene glycol, 1% Tween 80) or 30 mg/kg SH-053-2’F-R-CH3 (α5-PAM; synthesized in the laboratory of Dr. James M. Cook) in a volume of […]. All animals received a single daily injection (chronic α5-PAM treated mice received SH-053-2’F-R-CH3, acute α5-PAM and vehicle treated animals received vehicle injections) between 8:00AM and 9:00AM until the start of behavioral testing. After 3 weeks of treatment, all mice began receiving a second injection 30 min prior to behavioral testing. All animals received a second injection of either vehicle (for chronic α5-PAM treated animals and UCMS-vehicle treated animals) or α5-PAM acutely (α5-PAM acute animals). All injections were performed using ultra-fine insulin syringes (31 gauge, 6 mm; Becton, Dickinson and Company, Franklin Lakes, NJ, USA).
(§3) After 5 weeks of UCMS, including 3 weeks of drug treatment, animals were assessed in a battery of behavioral tests (each test separated by 48 h, UCMS continued throughout behavioral testing for a period of 1–3 weeks). These tests included: Elevated plus maze: under red light, animals were placed on a plus maze with two open and two closed arms (30 cm × 5 cm). Number of entries into all arms as well as the time spent in the open arms was recorded for 10 min. Open field test: The open field test was conducted in a 43 cm ×43 cm arena under bright (800 lux) light. Using AnyMaze software (Stoelting, Wood Dale, IL, USA), the center 50% of the arena was identified and animals were tracked for 10 min. Novelty suppressed feeding test: Mice were food deprived for 24 h the day before testing. Testing occurred in brightly lit (∼1000 lux) open field arenas covered in bedding. A normal food pellet was placed into the brightly lit center and the latency for an animal to approach and bite the pellet was recorded over a 12 min session. Immediately following the session, animals were placed into their home cage and allowed to eat a weighed food pellet to assess hunger drive. Cookie test: The cookie test apparatus contains three identically sized chambers (40 cm × 20 cm × 20 cm) separated by two offset dividers. The outer walls of each chamber were clear and the only difference between each was the color of the divider, with one divider shaded white and the other black. One week prior to experimentation, mice were habituated in their home cage to a piece (2 ± 1 g) of Keebler Fudge Stripe Cookie (Kellogg’s Company, Battle Creek, MI, USA). On the first and second day of testing, a piece of cookie (2 ± 1 g) was placed into the chamber separated by the black divider. Mice were then placed into the opposing chamber separated by the white divider and monitored for 10 min. The latency for each mouse to bite the cookie was recorded. […]

[3] = test system: mice exposed to unpredictable chronic mild stress (UCMS); experiment: Cookie test after UCMS
Text: as §1, §2, §3

[4] = test system: mice exposed to unpredictable chronic mild stress (UCMS); experiment: Elevated plus maze after UCMS; settings: for EPM percentage of entries into open arms: first cohort (Figure 2)
[5] = female UCMS mice, acute treatment, vs UCMS-vehicle, second cohort (Figure 3)
[6] = female UCMS mice, chronic treatment, vs UCMS-vehicle, second cohort (Figure 3)
[7] = male UCMS mice, 37.5 mg/kg acute or chronic (Figure 4B), 37.5 mg/kg
[8] = male UCMS mice, acute or chronic 30 mg/kg i.p., first cohort (Figure 2)
[9] = male mice, UCMS plus single housing, chronic treatment (Figure 4A)

## C#Cc1ccc2c(c1)C(c1ccccc1F)=N[C@H](C)c1c(C(=O)OCC)ncn1-2 [α5-PAM]
[1]; female UCMS mice
  total or surface α5 protein expression, hippocampus: no difference; also recorded: No significant effect
[1]; male UCMS mice
  total or surface α5 protein expression, hippocampus: no difference; also recorded: No significant effect
[2]; female UCMS mice, acute 30 mg/kg i.p. 30 min before test, vs UCMS-vehicle, first cohort (Figure 2)
  NSF latency to bite food pellet: reduced the latency to bite; also recorded: reducing latency to bite
[2]; [5]
  NSF latency to bite food pellet: reduces; also recorded: reduced the latency to bite
[2]; female UCMS mice, chronic 30 mg/kg i.p., vs UCMS-vehicle, first cohort (Figure 2)
  NSF latency to bite food pellet: reduced the latency to bite; also recorded: reducing latency to bite
[2]; [6]
  NSF latency to bite food pellet: reduces; also recorded: reduced the latency to bite
[2]; [7]
  NSF, stress-induced behavior: No change; also recorded: failed to reduce
[2]; [8]
  NSF latency to bite food pellet: no effect
[2]; [9]
  NSF, UCMS-induced behavioral phenotype: did not alter; also recorded: No significant effect
[3]; female UCMS mice, acute 30 mg/kg i.p., first cohort (Figure 2)
  cookie test latency to bite the cookie: a trend in the same direction
[3]; [5]
  cookie test latency to bite the cookie: reduces the latency to bite; also recorded: significantly reduced the latency to bite
[3]; female UCMS mice, chronic 30 mg/kg i.p., first cohort (Figure 2)
  cookie test latency to bite the cookie: reduced the latency to bite; also recorded: significant decrease
[3]; [6]
  cookie test latency to bite the cookie: reduces the latency to bite; also recorded: significantly reduced the latency to bite
[3]; [7]
  cookie test, stress-induced behavior: No change; also recorded: failed to reduce
[3]; [8]
  cookie test latency to bite the cookie: No significant effect; also recorded: No significant difference
[3]; [9]
  cookie test, UCMS-induced behavioral phenotype: did not alter; also recorded: No significant effect
[4]; female UCMS mice, acute or chronic treatment, second cohort with non-stressed controls (Figure 3)
  EPM open arm behavior: no effect
[4]; female UCMS mice, chronic 30 mg/kg i.p., vs UCMS-vehicle
  EPM percentage of entries into open arms: anti-stress effect; also recorded: increased percentage of open arm entries
[4]; [7]
  EPM, stress-induced behavior: No change; also recorded: failed to reduce
[4]; male UCMS mice, acute or chronic 30 mg/kg i.p.
  EPM percentage of entries into open arms: No significant differences; also recorded: no effect
[4]; [9]
  EPM, UCMS-induced behavioral phenotype: did not alter; also recorded: No significant effect
